This is an account of results in the NIST ThermoML archive (doi:10.1016/j.fluid.2018.05.023).

The nature of series [1]: Molar enthalpy of transition or fusion. As to conditions: Crystal; DSC.
The conditions of series [2]: Crystal; DTA.

± gives the expanded uncertainty stated by the source.

Consider `Cn1cc([N+](=O)[O-])cn1` [1-methyl-4-nitropyrazole], for which the “Molar enthalpy of transition or fusion” value in series [1] came to 2.36 ± 0.112 kcal/mol. Also, in series [2], the Normal melting temperature came out at 92.00 ± 1.1 °C.
